pIC50: −log10 of the molar value.
These compounds were tested against T1, human full-length MKNK1 (Homo sapiens, UniProt Q9BUB5, T385D) (assay: MKNK1 kinase high ATP assay (TR-FRET)). Settings: high ATP (2 mM final), 15 min preincubation with enzyme, 30 min reaction at 22° C.
T1 construct: GST (N); purchased Carna Biosciences 02-145; host or cells: insect cells (baculovirus expression system)
Assay type: biochemical
Description: MKNK1-inhibitory activity at high ATP of compounds of the present invention after their preincubation with MKNK1 was quantified employing the TR-FRET-based MKNK1 high ATP assay as described in the following paragraphs.
A recombinant fusion protein of Glutathione-S-Transferase (GST, N-terminally) and human full-length MKNK1 (amino acids 1-424 and T344D of accession number BAA 19885.1), expressed in insect cells using baculovirus expression system and purified via glutathione sepharose affinity chromatography, was purchased from Carna Biosciences (product no 02-145) and used as enzyme. As substrate for the kinase reaction the biotinylated peptide biotin-Ahx-IKKRKLTRRKSLKG (C-terminus in amide form) was used, which can be purchased e.g. from the company Biosyntan (Berlin-Buch, Germany).
For the assay 50 nL of a 100 fold concentrated solution of the test compound in DMSO was pipetted into a black low volume 384 well microtiter plate (Greiner Bio-One, Frickenhausen, Germany), 2 μL of a solution of MKNK1 in aqueous assay buffer [50 mM HEPES pH 7.5, 5 mM MgCl2, 1.0 mM dithiothreitol, 0.005% (v/v) Nonidet-P40 (Sigma)] was added and the mixture was incubated for 15 min at 22° C. to allow pre-binding of the test compounds to the enzyme before the start of the kinase reaction. Then the kinase reaction was started by the addition of 3 μL of a solution of adenosine-tri-phosphate (ATP, 3.3 mM=>final conc. in the 5 μL assay volume is 2 mM) and substrate (0.1 μM=>final conc. in the 5 μL assay volume is 0.06 μM) in assay buffer and the resulting mixture was incubated for a reaction time of 30 min at 22° C. The concentration of MKNK1 was adjusted depending of the activity of the enzyme lot and was chosen appropriate to have the assay in the linear range, typical concentrations were in the range of 0.003 μg/mL. The reaction was stopped by the addition of 5 μL of a solution of TR-FRET detection reagents (5 nM streptavidine-XL665 [Cisbio Bioassays, Codolet, France] and 1 nM anti-ribosomal protein S6 (pSer236)-antibody from Invitrogen [#44921G] and 1 nM LANCE EU-W1024 Labeled ProteinG [Perkin-Elmer, product no. AD0071]) in an aqueous EDTA-solution (100 mM EDTA, 0.1% (w/v) bovine serum albumin in 50 mM HEPES pH 7.5).
The resulting mixture was incubated for 1 h at 22° C. to allow the formation of complex between the phosphorylated biotinylated peptide and the detection reagents. Subsequently the amount of phosphorylated substrate was evaluated by measurement of the resonance energy transfer from the Eu-chelate to the streptavidine-XL. Therefore, the fluorescence emissions at 620 nm and 665 nm after excitation at 350 nm were measured in a TR-FRET reader, e.g. a Rubystar (BMG Labtechnologies, Offenburg, Germany) or a Viewlux (Perkin-Elmer). The ratio of the emissions at 665 nm and at […] was taken as the measure for the amount of phosphorylated substrate. The data were normalised (enzyme reaction without inhibitor=0% inhibition, all other assay components but no enzyme=100% inhibition).

T1 sequence (Q9BUB5 1-424 isoform Q9BUB5-2 T344D): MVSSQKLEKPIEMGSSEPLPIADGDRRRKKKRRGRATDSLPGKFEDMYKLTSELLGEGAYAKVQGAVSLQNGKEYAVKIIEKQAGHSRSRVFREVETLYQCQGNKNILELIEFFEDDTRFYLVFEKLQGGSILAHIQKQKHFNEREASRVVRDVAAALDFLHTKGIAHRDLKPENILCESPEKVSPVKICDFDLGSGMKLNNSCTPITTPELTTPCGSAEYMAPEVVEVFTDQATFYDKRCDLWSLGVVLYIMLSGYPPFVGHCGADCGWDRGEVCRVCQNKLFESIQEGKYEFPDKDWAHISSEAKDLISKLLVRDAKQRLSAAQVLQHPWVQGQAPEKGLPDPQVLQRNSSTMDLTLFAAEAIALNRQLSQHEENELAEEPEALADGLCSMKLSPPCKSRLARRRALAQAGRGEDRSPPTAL

| SMILES | pIC50 |
| --- | --- |
| CC(C)Oc1cc2[nH]ncc2cc1Nc1ncnc2[nH]cc(Br)c12 [Example 26, 5-Bromo-N-[6-(propan-2-yloxy)-1H-indazol-5-yl]-7H-pyrrolo[2,3-d]pyrimidin-4-amine] | 8.70 |
| COc1cc2[nH]ncc2cc1Nc1ncnc2[nH]c(C(=O)N3CCC3)c(Br)c12 [Example 66, Azetidin-1-yl{5-bromo-4-[(6-methoxy-1H-indazol-5-yl)amino]-7H-pyrrolo[2,3-d]pyrimidin-6-yl}methanone] | 8.70 |

The remaining compounds from weak to strong by pIC50, led by results:

| pIC50 | SMILES |
| --- | --- |
| 7.43 | CC(C)Oc1cc2[nH]ncc2cc1Nc1ncnc2[nH]c(S(C)(=O)=O)cc12 [Example 54, 6-(Methylsulfonyl)-N-[6-(propan-2-yloxy)-1H-indazol-5-yl]-7H-pyrrolo[2,3-d]pyrimidin-4-amine] |
| 7.68 | CCCc1[nH]c2ncnc(Nc3cc4cn[nH]c4cc3OC(C)C)c2c1CC [Example 45, 5-Ethyl-N-[6-(propan-2-yloxy)-1H-indazol-5-yl]-6-propyl-7H-pyrrolo[2,3-d]pyrimidin-4-amine] |
| 8.70 | COc1cc2[nH]ncc2cc1Nc1ncnc2[nH]c(C(=O)N3CCCCC3)c(Br)c12 [Example 60, {5-Bromo-4-[(6-methoxy-1H-indazol-5-yl)amino]-7H-pyrrolo[2,3-d]pyrimidin-6-yl}(piperidin-1-yl)methanone] |
